{"source": "patent US9526785B2", "about": "“Pharmaceuticals for oral delivery” (Enteris BioPharma, Inc., priority 2013, dated 2016)", "assay": "Tigecycline plasma PK and % F after intraduodenal (ID) injection in anesthetized rats", "format": "in vivo, Sprague-Dawley Rats", "conditions": "for AUC(0-t) / Tmax / bioavailability / Cmax: female, Sprague-Dawley, rat, plasma; for bioavailability: read-out: % F, mean", "method": "Animals weighed approximately 250 g at the time of testing. Rats were fasted overnight (with water available), prior to dosing.\nIntravenous (IV) doses were administered as a bolus injection into the left carotid […] at a dose volume of 1.6 mL/kg. Intraduodenal doses were administered as bolus injections into the duodenum at a dose volume of 1.2 mL/kg.\nAn additional study was conducted exploring the effect of formulation pH at constant CA and LLC concentrations (RA867).\nFemale rats were maintained in groups of 3 per polycarbonate (or equivalent) shoebox cage with fresh wood chip bedding at 20-22° C. under a 12 hour on/off light:dark cycle. […] After the rats went limp they were injected intraperitoneally (IP) with 0.1 mL ketamine/xylazine. The anesthetic state was maintained by IP injection of ketamine/xylazine on an as needed basis. Animal weights were determined post-anesthesia induction.\nAn indwelling catheter for blood sampling was inserted into the right carotid artery by exposing the trachea with Mayo scissors, clamping the bottom of the […] and tying off the top with surgical suture. The area between was nicked with small sharp scissors and Intramedic polyethylene tubing was inserted into the nicked area. The artery with the tubing was sealed with suture to prevent leakage. A 23-gauge Intramedic Luer Stub Adapter was inserted into the cannula and attached to a 3 way valve which was connected to a 3 cc syringe filled with 0.9% normal saline and a 1 cc syringe filled with 5 U/mL sodium heparin for blood sampling.\nAn intraduodenal injection was utilized to mimic oral delivery of an enterically coated capsule or tablet formulation. […] Mayo scissors were used to expose the duodenum and the site of administration was identified by measuring 5 cm from the junction of the stomach and the duodenum towards the jejunum. The measured site was identified by inserting a small piece of surgical suture underneath the site for injection. After the formulation was injected, the abdominal cavity was closed with surgical clips.\nBlood samples were collected in tubes containing 20 μL 180 mM EDTA. The tubes were maintained on ice and then centrifuged at approximately 3000 rpm at 4° C. for 5 minutes. Plasma was harvested immediately after centrifugation of the samples and stored at −20° C. pending analysis.\nMinocycline (VWR international) was used as an internal standard. Sample processing/clean-up of plasma samples was carried out offline by protein precipitation with acidified acetonitrile.\nThe HPLC system consisted of Shimadzu SIL-HTc HPLC system equipped with dual Shimadzu LC-10ADvp isopumps, a Shimadzu CTO-10ASvp column temperature controller and a Shimadzu SPD-10Avp variable wavelength detector. […] Mobile phase A consisted of 23 mM phosphate buffer pH 2.5 with 6 mM 1-octanesulfonic acid, while mobile phase B consisting of pure acetonitrile. […] The mobile phase flow rate was 1.2 mL/min. Detection was performed using the SPD-10Avp variable wavelength detector set at 350 nm, with a sensitivity of 0.001 aufs.\nThe samples were then centrifuged under refrigeration at 13 k rpm for 30 minutes. The supernatant was taken and the liquid was removed to dryness in a turbovap. The samples were then reconstituted in 55 μL 0.1M phosphate buffer, pH 3.8. Samples were maintained at 10° C. while on the autoinjector during sequence. The injection volume was 50 μL. The unknown concentration in rat plasma samples was determined by interpolation of the peak area ratios of analyte:internal standard versus the ratio of their nominal concentrations into the regression line obtained from calibration standards spiked in pooled rat plasma. No regression weighting was used for the calculations. […] The calibration curve covered the range of 0.05 μg/mL to 5.0 μg/mL.", "key": {"[1]": {"conditions": "ID, 400 mM CA (pH 3.5), 26 mM LLC, 4.8 mg/kg (RA851), parent Tigecycline peak only, 4.8 mg/kg"}, "[2]": {"conditions": "ID, 400 mM CA (pH 3.5), 26 mM LLC, 9.0 mg/kg (RA853), parent Tigecycline peak only, 9 mg/kg"}, "[3]": {"conditions": "4.6 mg/kg, RA861, ID, 26 mM LLC alone, mean dose 4.6 mg/kg"}, "[4]": {"conditions": "4.6 mg/kg, RA861, ID, 400 mM CA/26 mM LLC, mean dose 4.6 mg/kg"}, "[5]": {"conditions": "4.8 mg/kg, ID, PBS, 4.8 mg/kg (RA851)"}, "[6]": {"conditions": "4.8 mg/kg, RA861, ID, 400 mM CA alone, mean dose 4.8 mg/kg"}, "[7]": {"conditions": "4.8 mg/kg, pH 3.5, ID, 100 mM CA (pH 3.5), 26 mM LLC, 4.8 mg/kg (RA851)"}, "[8]": {"conditions": "4.8 mg/kg, pH 3.5, ID, 400 mM CA (pH 3.5), 26 mM LLC, 4.8 mg/kg (RA851), parent Tigecycline peak only"}, "[9]": {"conditions": "4.8 mg/kg, pH 3.5, RA867, ID, 400 mM CA/26 mM LLC pH 3.5, 4.8 mg/kg"}, "[10]": {"conditions": "4.8 mg/kg, pH 6, RA867, ID, 400 mM CA/26 mM LLC pH 6.0, 4.8 mg/kg"}, "[11]": {"conditions": "9 mg/kg, ID, PBS, 9.0 mg/kg (RA853), without animal RA853-6"}, "[12]": {"conditions": "9 mg/kg, pH 3.5, ID, 100 mM CA (pH 3.5), 26 mM LLC, 9.0 mg/kg (RA853)"}, "[13]": {"conditions": "9 mg/kg, pH 3.5, ID, 400 mM CA (pH 3.5), 26 mM LLC, 9.0 mg/kg (RA853), parent Tigecycline peak only"}}, "note": "Read-outs that look alike come from different tables or passages of the source."}
{"compound": "CN(C)c1cc(NC(=O)CNC(C)(C)C)c(O)c2c1C[C@H]1C[C@H]3[C@H](N(C)C)C(O)=C(C(N)=O)C(=O)[C@@]3(O)C(O)=C1C2=O", "note": "[Tigecycline]", "values": [{"measurement": "increase of tigecycline plasma concentrations", "setting": "ID, 26 mM LLC and 100 mM citrate pH 3.5, versus PBS", "result": "7-9 x"}, {"measurement": "Cmax, Mean", "setting": "ID, 100 mM CA (pH 3.5), 26 mM LLC, 4.8 mg/kg (RA851), 4.8 mg/kg", "result": 714, "unit": "ng/mL"}, {"measurement": "% F, Mean", "setting": "ID, 100 mM CA (pH 3.5), 26 mM LLC, 4.8 mg/kg (RA851), relative to 0.64 mg/kg IV", "result": 10.85, "unit": "%"}, {"measurement": "Tmax, Mean", "setting": "ID, 100 mM CA (pH 3.5), 26 mM LLC, 9.0 mg/kg (RA853), 9 mg/kg", "result": 16.667, "unit": "min"}, {"measurement": "% F, Mean", "setting": "ID, 100 mM CA (pH 3.5), 26 mM LLC, 9.0 mg/kg (RA853), relative to 12 mg/kg IV", "result": 11.36, "unit": "%"}, {"measurement": "increase of mean % F", "setting": "ID, 100 mM CA pH 3.5, 26 mM LLC, versus PBS", "result": "4-7 fold"}, {"measurement": "Cmax, Mean", "setting": "[1]", "result": 792, "unit": "ng/mL"}, {"measurement": "Tmax, Mean", "setting": "[1]", "result": 16.7, "unit": "min"}, {"measurement": "AUC(0-t), Mean", "setting": "[2]", "result": 137.6, "unit": "µg·min/mL"}, {"measurement": "Cmax, Mean", "setting": "[2]", "result": 2492, "unit": "ng/mL"}, {"measurement": "AUC(0-t), Mean", "setting": "ID, PBS, 9.0 mg/kg (RA853), without animal RA853-6, 9 mg/kg", "result": 15.7, "unit": "µg·min/mL"}, {"measurement": "% F, Mean", "setting": "ID, PBS, 9.0 mg/kg (RA853), without animal RA853-6, relative to 12 mg/kg IV", "result": 2.76, "unit": "%"}, {"measurement": "AUC(0-t)", "setting": "[3]", "result": 68, "unit": "ng·h/mL"}, {"measurement": "Tmax", "setting": "[3]", "result": 18, "unit": "min"}, {"measurement": "bioavailability", "setting": "[3]", "result": 1, "unit": "%"}, {"measurement": "Cmax", "setting": "4.6 mg/kg, RA861, ID, 26 mM LLC alone, mean dose 4.6 mg/kg, read-out: Cmax, mean", "result": 64.1, "unit": "ng/mL"}, {"measurement": "AUC(0-t)", "setting": "[4]", "result": 139, "unit": "ng·h/mL"}, {"measurement": "Tmax", "setting": "[4]", "result": 10, "unit": "min"}, {"measurement": "bioavailability", "setting": "[4]", "result": 2.1, "unit": "%"}, {"measurement": "Cmax", "setting": "4.6 mg/kg, RA861, ID, 400 mM CA/26 mM LLC, mean dose 4.6 mg/kg, read-out: Cmax, mean", "result": 30.6, "unit": "ng/mL"}, {"measurement": "AUC(0-t)", "setting": "[5]", "result": 116, "unit": "ng·h/mL"}, {"measurement": "Tmax", "setting": "[5]", "result": 90, "unit": "min"}, {"measurement": "Cmax", "setting": "4.8 mg/kg, ID, PBS, 4.8 mg/kg (RA851), read-out: Cmax, Mean", "result": 100, "unit": "ng/mL"}, {"measurement": "AUC(0-t)", "setting": "[6]", "result": 17.5, "unit": "ng·h/mL"}, {"measurement": "Tmax", "setting": "[6]", "result": 20, "unit": "min"}, {"measurement": "bioavailability", "setting": "[6]", "result": 0.3, "unit": "%"}, {"measurement": "Cmax", "setting": "4.8 mg/kg, RA861, ID, 400 mM CA alone, mean dose 4.8 mg/kg, read-out: Cmax, mean", "result": 11.7, "unit": "ng/mL"}, {"measurement": "AUC(0-t)", "setting": "[7]", "result": 823, "unit": "ng·h/mL"}, {"measurement": "Tmax", "setting": "[7]", "result": 20, "unit": "min"}, {"measurement": "Cmax", "setting": "4.8 mg/kg, pH 3.5, ID, 100 mM CA (pH 3.5), 26 mM LLC, 4.8 mg/kg (RA851), read-out: Cmax, Mean", "result": 710, "unit": "ng/mL"}, {"measurement": "AUC(0-t)", "setting": "[8]", "result": 1430, "unit": "ng·h/mL"}, {"measurement": "Tmax", "setting": "[8]", "result": 17, "unit": "min"}, {"measurement": "Cmax", "setting": "4.8 mg/kg, pH 3.5, ID, 400 mM CA (pH 3.5), 26 mM LLC, 4.8 mg/kg (RA851), parent Tigecycline peak only, read-out: Cmax, Mean", "result": 790, "unit": "ng/mL"}, {"measurement": "AUC(0-t)", "setting": "[9]", "result": 537, "unit": "ng·h/mL"}, {"measurement": "Tmax", "setting": "[9]", "result": 12, "unit": "min"}, {"measurement": "bioavailability", "setting": "[9]", "result": 7.7, "unit": "%"}, {"measurement": "Cmax", "setting": "4.8 mg/kg, pH 3.5, RA867, ID, 400 mM CA/26 mM LLC pH 3.5, 4.8 mg/kg, read-out: Cmax, mean", "result": 488, "unit": "ng/mL"}, {"measurement": "AUC(0-t)", "setting": "[10]", "result": 385, "unit": "ng·h/mL"}, {"measurement": "Tmax", "setting": "[10]", "result": 43, "unit": "min"}, {"measurement": "bioavailability", "setting": "[10]", "result": 5.5, "unit": "%"}, {"measurement": "Cmax", "setting": "4.8 mg/kg, pH 6, RA867, ID, 400 mM CA/26 mM LLC pH 6.0, 4.8 mg/kg, read-out: Cmax, mean", "result": 278, "unit": "ng/mL"}, {"measurement": "AUC(0-t)", "setting": "[11]", "result": 262, "unit": "ng·h/mL"}, {"measurement": "Tmax", "setting": "[11]", "result": 30, "unit": "min"}, {"measurement": "Cmax", "setting": "9 mg/kg, ID, PBS, 9.0 mg/kg (RA853), without animal RA853-6, read-out: Cmax, Mean", "result": 220, "unit": "ng/mL"}, {"measurement": "AUC(0-t)", "setting": "[12]", "result": 1280, "unit": "ng·h/mL"}, {"measurement": "Tmax", "setting": "[12]", "result": 17, "unit": "min"}, {"measurement": "Cmax", "setting": "9 mg/kg, pH 3.5, ID, 100 mM CA (pH 3.5), 26 mM LLC, 9.0 mg/kg (RA853), read-out: Cmax, Mean", "result": 2060, "unit": "ng/mL"}, {"measurement": "AUC(0-t)", "setting": "[13]", "result": 2300, "unit": "ng·h/mL"}, {"measurement": "Tmax", "setting": "[13]", "result": 10, "unit": "min"}, {"measurement": "Cmax", "setting": "9 mg/kg, pH 3.5, ID, 400 mM CA (pH 3.5), 26 mM LLC, 9.0 mg/kg (RA853), parent Tigecycline peak only, read-out: Cmax, Mean", "result": 2490, "unit": "ng/mL"}, {"measurement": "AUC(0-t)", "setting": "[…], RA869, ID, 26 mM LLC only", "result": 91.7, "unit": "ng·h/mL"}, {"measurement": "Tmax", "setting": "[…], RA869, ID, 26 mM LLC only", "result": 10, "unit": "min"}, {"measurement": "bioavailability", "setting": "[…], RA869, ID, 26 mM LLC only, […]", "result": 8.9, "unit": "%"}]}
